These results are taken from US20160355530A1, “HEPATITIS C INHIBITORS AND USES THEREOF” (AbbVie Inc., priority 2010, published 2016).

Like-named read-outs stand apart in the source and are kept apart here.

Test [1] deals with chimeric replicon with genotype 4a NS5B. The experiment in a line: microbe, parasite or virus in culture. It is filed as cell-based, HCV genotype 4a. Conditions: Hepatitis C virus, read-out: 4a chimera 5% FBS EC50.
Test [2] concerns the target T1, HCV NS5B polymerase 1b BK strain (Hepatitis C virus genotype 1b, UniProt P26663).
T1 construct: six-histidine tag; made in house; host or cells: E. coli
The experiment in a line: HCV NS5B polymerase enzymatic inhibition assay, strain 1b BK. The note with it: enzyme, strain 1b BK; read-out: HCV Polymerase Strain 1b BK IC50. In kind it is biochemical. The essentials:
(§1)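 Incorporation of [3H]UTP (0.284 μM), alongside 20 μM each CTP and ATP, into RNA copied from a 5 nM 2.1 kb genotype 1b negative-strand template was measured after 3 h at 30° C using purified His-tagged NS5B truncated at residue 570. Product was spermine-precipitated, filtered and scintillation-counted; nonlinear regression gave IC50.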

The test system of test [3] is chimeric replicon with 2a-J6CF-derived NS5B. Put plainly: microbe, parasite or virus in culture. In kind it is cell-based, HCV genotype 2a. The note with it: Hepatitis C virus, read-out: 2a chimera 5% FBS EC50.
In test [4] the test system is chimeric replicon with genotype 3a NS5B. Put plainly: microbe, parasite or virus in culture. It is filed as cell-based, HCV genotype 3a. Conditions: Hepatitis C virus, read-out: 3a chimera 5% FBS EC50.
In test [5] the test system is chimeric replicon with genotype 2b NS5B. Put plainly: microbe, parasite or virus in culture. It is filed as cell-based, HCV genotype 2b. Conditions: Hepatitis C virus, read-out: 2b chimera 5% FBS EC50.
Test [6] relates to HCV NS5B polymerase 1a-H77-C316Y. The experiment in a line: biochemical. Set-up: species or system HCV genotype 1a. Conditions: ratio of enzyme IC50s, 1a H77-C316Y / 1a H77. The essentials:
as §1

Test [7] deals with T2, HCV NS5B polymerase 1a-H77 (Hepatitis C virus genotype 1a, UniProt P27958).
T2 construct: six-histidine tag; made in house; host or cells: E. coli
T2 sequence (P27958 2421-2990): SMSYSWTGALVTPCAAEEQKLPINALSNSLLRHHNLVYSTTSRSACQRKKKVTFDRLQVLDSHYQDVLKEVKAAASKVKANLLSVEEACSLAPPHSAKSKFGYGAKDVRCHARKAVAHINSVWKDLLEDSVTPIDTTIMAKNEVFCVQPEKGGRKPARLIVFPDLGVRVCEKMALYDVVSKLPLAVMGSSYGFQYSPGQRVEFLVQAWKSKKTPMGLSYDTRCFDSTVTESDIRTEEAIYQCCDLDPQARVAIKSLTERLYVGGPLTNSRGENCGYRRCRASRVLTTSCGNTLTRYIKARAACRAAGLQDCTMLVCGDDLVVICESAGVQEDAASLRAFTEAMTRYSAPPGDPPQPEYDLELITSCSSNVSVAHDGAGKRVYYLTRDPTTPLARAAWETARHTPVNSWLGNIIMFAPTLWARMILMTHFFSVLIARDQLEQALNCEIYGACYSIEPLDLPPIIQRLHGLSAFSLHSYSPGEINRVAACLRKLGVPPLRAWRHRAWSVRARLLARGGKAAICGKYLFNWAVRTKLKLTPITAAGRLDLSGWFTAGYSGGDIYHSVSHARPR
Put plainly: biochemical. Set-up: species or system HCV genotype 1a. Conditions: enzyme, strain 1a H77; read-out: HCV Polymerase Strain 1a H77 IC50. The essentials:
as §1

Test [8] concerns the target T3, HCV NS5B polymerase 1a-H77-C316Y (Hepatitis C virus genotype 1a, UniProt P27958, C2736Y).
T3 construct: six-histidine tag; made in house; host or cells: E. coli
Put plainly: biochemical. On the set-up: species or system HCV genotype 1a. The essentials: as §1

Test [9] deals with HCV 1b-BB7 subgenomic replicon. Put plainly: microbe, parasite or virus in culture. The note with it: Hepatitis C virus, stable replicon. In kind it is cell-based, HCV genotype 1b. Background: In antiviral work, replicon cells carry a viral genome segment that copies itself.
The subject of test [10] is HCV 1a-H77 subgenomic replicon. The experiment in a line: microbe, parasite or virus in culture. In kind it is cell-based, HCV genotype 1a. Conditions: Hepatitis C virus, stable replicon.
[11] abbreviates: strain 1b BB7, 5% FBS + 40% human plasma, read-out: 1b BB7 5% FBS + 40% Human Plasma EC50.
The mark [12] stands for this setting: strain 1b BB7, 5% FBS, no human plasma, read-out: 1b BB7 5% FBS EC50.
The mark [13] stands for this setting: strain 1b BB7, 5% FBS, read-out: 1b BB7 5% FBS EC50.
[14] abbreviates: 5% FBS, absence of human plasma, read-out: Stable Replicon 1a H77 5% FBS EC50.
[15] abbreviates: strain 1a H77, 5% FBS + 40% human plasma, read-out: 1a H77 5% FBS + 40% Human Plasma EC50.
The mark [16] stands for this setting: strain 1a H77, 5% FBS, no human plasma, read-out: 1a H77 5% FBS EC50.
The mark [17] stands for this setting: strain 1a H77, 5% FBS, read-out: 1a H77 5% FBS EC50.

What is called EC50 is the concentration at which the effect is half-maximal. For orientation: IC50 means the concentration at which inhibition is half-maximal.

T1 sequence (P26663 2420-2989): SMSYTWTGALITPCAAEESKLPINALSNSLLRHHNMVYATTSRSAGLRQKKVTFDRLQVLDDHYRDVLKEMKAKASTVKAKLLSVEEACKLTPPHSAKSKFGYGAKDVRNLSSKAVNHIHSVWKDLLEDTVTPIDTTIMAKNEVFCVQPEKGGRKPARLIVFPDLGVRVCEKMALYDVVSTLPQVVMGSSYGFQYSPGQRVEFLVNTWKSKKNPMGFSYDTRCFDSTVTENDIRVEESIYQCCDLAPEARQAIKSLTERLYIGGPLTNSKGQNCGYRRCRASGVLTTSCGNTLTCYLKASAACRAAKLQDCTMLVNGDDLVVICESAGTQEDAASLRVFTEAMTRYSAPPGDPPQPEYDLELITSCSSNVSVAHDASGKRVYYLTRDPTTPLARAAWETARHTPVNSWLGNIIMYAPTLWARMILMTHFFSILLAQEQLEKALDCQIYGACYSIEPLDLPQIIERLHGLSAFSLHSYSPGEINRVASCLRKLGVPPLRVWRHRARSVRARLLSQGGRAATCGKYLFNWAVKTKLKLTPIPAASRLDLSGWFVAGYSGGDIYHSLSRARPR
T3 sequence (P27958 2421-2990 C2736Y): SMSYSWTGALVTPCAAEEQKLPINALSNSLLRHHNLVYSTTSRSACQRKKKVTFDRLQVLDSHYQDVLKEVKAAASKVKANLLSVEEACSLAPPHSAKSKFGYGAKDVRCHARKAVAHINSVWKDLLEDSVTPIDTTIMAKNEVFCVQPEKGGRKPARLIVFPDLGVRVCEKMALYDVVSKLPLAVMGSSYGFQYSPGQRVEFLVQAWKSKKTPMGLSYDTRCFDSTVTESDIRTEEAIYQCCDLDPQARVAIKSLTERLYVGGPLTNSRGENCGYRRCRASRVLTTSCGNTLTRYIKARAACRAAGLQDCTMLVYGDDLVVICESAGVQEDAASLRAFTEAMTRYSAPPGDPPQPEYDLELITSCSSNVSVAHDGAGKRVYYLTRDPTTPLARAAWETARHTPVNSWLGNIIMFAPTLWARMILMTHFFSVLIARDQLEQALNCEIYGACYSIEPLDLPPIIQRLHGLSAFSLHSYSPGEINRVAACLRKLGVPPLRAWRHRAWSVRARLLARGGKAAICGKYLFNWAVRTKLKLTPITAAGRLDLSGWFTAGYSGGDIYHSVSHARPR

In the case of `CS(=O)(=O)N(CCCc1noc(=O)[nH]1)c1cc2oc(-c3ccc(F)cc3)c(-c3ncc[nH]3)c2cc1C1CC1` [Example 175, N-[5-cyclopropyl-2-(4-fluorophenyl)-3-(1H-imidazol-2-yl)-1-benzofuran-6-yl]-N-[3-(5-oxo-4,5-dihydro-1,2,4-oxadiazol-3-yl)propyl]methanesulfonamide], the EC50 came out at 407 nM in [1]; 660 nM in test [3]; 62 nM in [4]; 723 nM in test [5]; 570 nM in test [9] (setting [11]); 62 nM in [9] (setting [12]). The EC50 in test [9] (setting [13]) amounted to 62 nM; in test [10] (setting [14]), 79 nM; in test [10] (setting [15]), 1180 nM; in test [10] (setting [16]) it was 79 nM; in test [10] (setting [17]), 79 nM. The values for the IC50 in test [2], in test [7] and in test [8] were 25 nM, 6 nM and 43 nM, respectively. In addition, in [6], the “C316Y/1a Fold Resistance” value worked out at 7 fold.
In the case of `CS(=O)(=O)N(CCC/C(N)=N/O)c1cc2oc(-c3ccc(F)cc3)c(-c3ncc[nH]3)c2cc1C1CC1` [Example 176, (1Z)-4-{[5-cyclopropyl-2-(4-fluorophenyl)-3-(1H-imidazol-2-yl)-1-benzofuran-6-yl](methylsulfonyl)amino}-N′-hydroxybutanimidamide], the EC50 in test [1] worked out at 159 nM; in [3], 146 nM; in [4], 12 nM; in [5], 155 nM; in test [9] (setting [11]), 80 nM; in test [9] (setting [12]), 20 nM. For the same compound, the EC50 in test [9] (setting [13]) was found to be 20 nM; in test [10] (setting [14]) it was 36.5 nM; in test [10] (setting [15]) it was 133 nM; in test [10] (setting [16]) it was 36.5 nM; in test [10] (setting [17]), 36.5 nM. For the same compound, the half-maximal inhibitory concentration (IC50) in [2] stood at 33 nM; in test [7] it was 5 nM; in test [8] it was 134 nM. Further, the “C316Y/1a Fold Resistance” value in test [6] is reported as 27 fold.
Regarding `CS(=O)(=O)N(CCCc1noc(=S)[nH]1)c1cc2oc(-c3ccc(F)cc3)c(-c3ncc[nH]3)c2cc1C1CC1` [Example 177, N-[5-cyclopropyl-2-(4-fluorophenyl)-3-(1H-imidazol-2-yl)-1-benzofuran-6-yl]-N-[3-(5-thioxo-4,5-dihydro-1,2,4-oxadiazol-3-yl)propyl]methanesulfonamide], the EC50 in test [1] is 401 nM; in test [3], 427 nM; in test [4], 30 nM; in test [5], 606 nM; in [9] (setting [11]), 461 nM; in [9] (setting [12]), 23 nM. Also, the EC50 turned out to be 23 nM in test [9] (setting [13]); 32 nM in test [10] (setting [14]); 520 nM in test [10] (setting [15]); 32 nM in [10] (setting [16]); 32 nM in test [10] (setting [17]). For the same compound, the IC50 in [2] was 36 nM; in [7] it was 4 nM; in test [8], 38 nM. For the same compound, the “C316Y/1a Fold Resistance” value in test [6] is reported as 10 fold.
On to `CS(=O)(=O)N(CCCc1nnn[nH]1)c1cc2oc(-c3ccc(F)cc3)c(C3=NOCCN3)c2cc1C1CC1` [Example 180, N-[5-cyclopropyl-3-(5,6-dihydro-4H-1,2,4-oxadiazin-3-yl)-2-(4-fluorophenyl)-1-benzofuran-6-yl]-N-[3-(1H-tetrazol-5-yl)propyl]methanesulfonamide], for which the EC50 in [1] was greater than 1000 nM; in test [3], 1000 nM; in test [4], 1000 nM; in test [5] it was 1000 nM; in test [9] (setting [11]) it was 10000 nM; in test [9] (setting [12]), 1000 nM. Further, the EC50 in test [9] (setting [13]) came to 1000 nM; in test [10] (setting [14]), 1000 nM; in test [10] (setting [15]), 10000 nM; in test [10] (setting [16]), 1000 nM; in test [10] (setting [17]), 1000 nM. Further, the half-maximal inhibitory concentration (IC50) in test [2] was determined as 32 nM; in [7], 6 nM; in test [8], 34 nM. The “C316Y/1a Fold Resistance” value in test [6] is listed as 6 fold.
Regarding `CS(=O)(=O)N(CCC/C(N)=N/O)c1cc2oc(-c3ccc(F)cc3)c(C3=NOCCN3)c2cc1C1CC1` [Example 181, (1Z)-4-{[5-cyclopropyl-3-(5,6-dihydro-4H-1,2,4-oxadiazin-3-yl)-2-(4-fluorophenyl)-1-benzofuran-6-yl](methylsulfonyl)amino}-N′-hydroxybutanimidamide], the EC50 in [1] worked out at 594 nM; in test [3], 785 nM; in test [4], 108 nM; in test [5] it was 548 nM; in [9] (setting [11]), 702 nM; in [9] (setting [12]) it was 46 nM. Further, the EC50 in [9] (setting [13]) was 46 nM; in [10] (setting [14]), 55.7 nM; in test [10] (setting [15]) it was 611 nM; in [10] (setting [16]), 55.7 nM; in test [10] (setting [17]) it was 55.7 nM. Also, the IC50 in test [2] is 56 nM; in [7], 10 nM; in test [8], 103 nM. Further, the “C316Y/1a Fold Resistance” value in test [6] is 10 fold.
As for `CS(=O)(=O)N(CCCc1noc(=O)[nH]1)c1cc2oc(-c3ccc(F)cc3)c(C3=NOCCN3)c2cc1C1CC1` [Example 182, N-[5-cyclopropyl-3-(5,6-dihydro-4H-1,2,4-oxadiazin-3-yl)-2-(4-fluorophenyl)-1-benzofuran-6-yl]-N-[3-(5-oxo-4,5-dihydro-1,2,4-oxadiazol-3-yl)propyl]methanesulfonamide], the EC50 was greater than 1000 nM in [1]; 1000 nM in [3]; 661 nM in test [4]; 1000 nM in [5]; 5250 nM in [9] (setting [11]); 310 nM in [9] (setting [12]). Also, the concentration giving a half-maximal response (EC50) in test [9] (setting [13]) was 310 nM; in test [10] (setting [14]), 356 nM; in test [10] (setting [15]), 4230 nM; in [10] (setting [16]), 356 nM; in test [10] (setting [17]), 356 nM. Further, the figures for the IC50 in test [2], in test [7] and in test [8] were 44 nM, 7 nM and 26 nM, respectively. Also, the “C316Y/1a Fold Resistance” value in [6] came to 4 fold.
On to `CS(=O)(=O)N(CCCc1noc(=S)[nH]1)c1cc2oc(-c3ccc(F)cc3)c(C3=NOCCN3)c2cc1C1CC1` [Example 183, N-[5-cyclopropyl-3-(5,6-dihydro-4H-1,2,4-oxadiazin-3-yl)-2-(4-fluorophenyl)-1-benzofuran-6-yl]-N-[3-(5-thioxo-4,5-dihydro-1,2,4-oxadiazol-3-yl)propyl]methanesulfonamide], for which the EC50 in test [1] is greater than 1000 nM; in [3], 1000 nM; in test [4], 306 nM; in test [5], 1000 nM; in test [9] (setting [11]) it was 2200 nM; in test [9] (setting [12]), 88 nM. Also, the EC50 was 88 nM in test [9] (setting [13]); 104 nM in [10] (setting [14]); 2060 nM in test [10] (setting [15]); 104 nM in [10] (setting [16]); 104 nM in [10] (setting [17]). Further, the IC50 in [2] is 39 nM; in test [7] it was 6 nM; in test [8], 22 nM. Further, the “C316Y/1a Fold Resistance” value in test [6] came to 4 fold.
As to `CS(=O)(=O)N(CCCc1nsc(=O)[nH]1)c1cc2oc(-c3ccc(F)cc3)c(C3=NOCCN3)c2cc1C1CC1` [Example 184, N-[5-cyclopropyl-3-(5,6-dihydro-4H-1,2,4-oxadiazin-3-yl)-2-(4-fluorophenyl)-1-benzofuran-6-yl]-N-[3-(5-oxo-4,5-dihydro-1,2,4-thiadiazol-3-yl)propyl]methanesulfonamide], the EC50 in [1] stood at 507 nM; in test [3], 539 nM; in [4], 84 nM; in [5] it was 353 nM; in test [9] (setting [11]) it was 1090 nM; in test [9] (setting [12]), 28 nM. The EC50 was 28 nM in [9] (setting [13]); 69.7 nM in [10] (setting [14]); 1870 nM in test [10] (setting [15]); 69.7 nM in [10] (setting [16]); 69.7 nM in test [10] (setting [17]). The IC50 in test [2] was 156 nM; in [7] it was 17 nM; in test [8], 599 nM. For the same compound, in [6], the “C316Y/1a Fold Resistance” value is 35 fold.
